According to patent US5272152A, “Purinyl and pyrimidinyl tetrahydrofurans” (priority 1991, dated 1993):
In brackets after ≈: the same amount, converted by molar mass. Where two headings read alike, the source gives them in different places.

Legend:
HSV-2 = HSV-2 antiviral assay: plaque reduction in WI-38 cell culture monolayers; format: cell-based, herpes simplex virus type 2, strain 186; conditions: read-out: ID50 HSV-2
Experimental: (§1) Assays were performed in cell culture systems to determine the concentrations of compounds that are effective in preventing several kinds of viral infections.
(§2) HSV-1 (herpes simplex virus type 1, strain Schooler), HSV-2 (herpes simplex virus type 2, strain 186), VZV (varicella zoster virus, strain ELLEN).
(§3) HSV-1, HSV-2, and VZV antiviral assays: Virus was adsorbed to WI-38 cell culture monolayers in 6 well culture plates (Costar, Cambridge, Mass.) for 1 hour prior to addition of maintenance medium containing duplicate dilutions of the test compound. Inhibition of plaque development was evaluated on fixed and stained monolayers after 4 days incubation at 37° C. for HSV-1 and HSV-2 and after 6-7 days incubation at 37° C. for VZV. ID50 values were determined from the drug concentration which conferred at least a 50% plaque reduction compared to virus controls (Table 1).

HSV-1 = HSV-1 antiviral assay: plaque reduction in WI-38 cell culture monolayers; format: cell-based, herpes simplex virus type 1, strain Schooler; conditions: read-out: ID50 HSV-1
Experimental: as §1, §2, §3

VZV = VZV antiviral assay: plaque reduction in WI-38 cell culture monolayers; format: cell-based, varicella zoster virus, strain ELLEN; conditions: Human alphaherpesvirus 3, 156 h; WI-38 cells; at least 50% plaque reduction vs virus controls; 6-7 days at 37° C.; read-out: ID50 VZV
Experimental: as §1, §2, §3

[1] = Human alphaherpesvirus 2, 96 h, WI-38 cells, at least 50% plaque reduction vs virus controls, 4 days at 37° C.
[2] = Human alphaherpesvirus 1, 96 h, WI-38 cells, at least 50% plaque reduction vs virus controls, 4 days at 37° C.

| Structure (SMILES) | IC50 (HSV-2; [1]) | IC50 (HSV-1; [2]) | IC50 (VZV) | IC50 (HSV-2; Human alphaherpesvirus 2, WI-38, 96 h) | IC50 (HSV-1; Human alphaherpesvirus 1, WI-38, 96 h) |
| --- | --- | --- | --- | --- | --- |
| Cc1cn([C@@H]2CO[C@H](CO)[C@H]2O)c(=O)[nH]c1=O [[3R-(3α,4β,5α)]-5-Methyl-1-[tetrahydro-4-hydroxy-5-(hydroxymethyl)-3-furanyl]2,4(1H,3H)pyrimidinedione] | > 100 µg/mL | 10 µg/mL (≈ 41.3 µM) | > 100 µg/mL |  |  |
| Nc1ccn([C@@H]2CO[C@H](CO)[C@H]2O)c(=O)n1 [[3R-(3α,4β,5α)]-4-Amino-1-[tetrahydro-4-hydroxy-5-(hydroxymethyl)-3-furanyl]-2(1H)-pyrimidinone] |  |  | 25 to 50 µg/mL (≈ 110 to 220 µM) | > 100 µg/mL | > 100 µg/mL |
| Nc1nc2c(ncn2[C@@H]2CO[C@H](CO)[C@H]2O)c(=O)[nH]1 | 2 µg/mL (≈ 7.48 µM) | 2 to 5 µg/mL (≈ 7.48 to 18.7 µM) | 50 to 100 µg/mL (≈ 187 to 374 µM) |  |  |
